According to patent US10758473B2, “Extract of plant origin of globularia and method for obtaining said extract by in vitro plant culture” (Sederma, priority 2011, dated 2020):

Tests used:
[1] = target: bovine serum albumin (BSA) (Bos taurus, UniProt P02769); experiment: Non-enzymatic glycation of BSA; assay type: biochemical
Protocol: 1) Non-Enzymatic Glycation of BSA
This simple test reproduces in vitro a stress to which regular skin proteins are subjected: their functional alteration by a non-enzymatic glycation phenomenon.
The study model used is a bovine serum albumin (BSA), which is contacted with a physiological reducing sugar, the fructose, giving a spontaneous and slow reaction between the two molecules that can be accelerated by temperature. In this test, the BSA and fructose are incubated in the presence or absence of the test products at 50° C. for 7 days. The glycation end products have a natural fluorescence that can be quantified using a fluorimeter (λex=360 nm and λem=460 nm). 0.03% Aminoguanidine is used as a positive control of glycation inhibition.
The anti-glycation effect of the extract of Globularia cordifolia was studied using a protein model, BSA and a natural reducing sugar, fructose which glycates, i.e. binds, to the protein in a non-enzymatic manner. The product of this binding is fluorescent and is monitored with a recording system.

sirtuin-1 = experiment: Intracellular sirtuin-1 in human keratinocytes (ELISA); assay type: cell-based; conditions: Trolox at 500 μm
Text: Hormetic effects such as calorie restriction or contact with hormetic molecules increase sirtuin enzymes and the lifespan of different organisms. The sirtuins act particularly on FOXO factor deacetylation and prevent triggering of the production of apoptotic proteins. The sirtuins also stimulate cellular anti-oxidant defenses and purification mechanisms (detoxification) and help to preserve mitochondrial function and therefore energy production. This increases survival and resistance to stresses. Human keratinocytes were cultured in the presence or absence of the Globularia cordifolia extract for 6 days and were then grinded and the intracellular levels of sirtuin-1 were measured using an ELISA method. Results were standardized by parallel measurement of total protein (BCA).

creatine kinase = experiment: Residual intracellular creatine kinase activity in human dermal fibroblasts after H2O2 stress; assay type: cell-based; conditions: Trolox at 500 μm
Text: Creatine kinase is a ubiquitous enzyme which exists in two isoforms in the skin. It is used to store energy in cells and enables tissues to respond to urgent energy requirements. This enzyme converts creatine into phosphocreatine using ATP which is converted back to ADP. When necessary, the enzyme works in the reverse direction and returns energy. Its activity falls with age as it is one of the preferred targets of reactive oxygen groups. Maintaining and increasing the activity of this enzyme is therefore desirable. Human dermal fibroblasts were placed in contact with the Globularia cordifolia extract according to the invention for 3 days. The cells were then exposed without said extract to an oxidative stress (hydrogen peroxide). After a further 3 days' contact with the Globularia cordifolia extract, the cells were again exposed to the same oxidative stress before being homogenized to measure residual intracellular creatine kinase activity. Activity was measured from the production of ATP from phosphocreatine and ADP. ATP is then measured from an enzymatic reaction leading to the formation of NADPH, readed at 340 nm. Results were standardized by measuring total protein (BCA).

[2] = tested on: mitochondrial membrane potential; experiment: Mitochondrial membrane potential in fibroblasts after H2O2 stress; assay type: cell-based, human; conditions: Trolox at 500 μm
Protocol: Human dermal fibroblasts were placed in contact with the Globularia cordifolia extract according to the invention for 3 days. The cells were then exposed without said extract to an oxidative stress (hydrogen peroxide). After a further 3 days' contact with the Globularia cordifolia extract, the cells were again exposed to the same oxidative stress before being homogenized to measure residual intracellular creatine kinase activity. Activity was measured from the production of ATP from phosphocreatine and ADP. ATP is then measured from an enzymatic reaction leading to the formation of NADPH, readed at 340 nm. Results were standardized by measuring total protein (BCA). A fall in this membrane potential is a warning sign of ageing and cell death and it is therefore essential that this be maintained to preserve the mitochondrial ability to produce ATP. Membrane potential was measured using a specific label sensitive to mitochondrial proton micro-variations. The label exists in two forms, monomeric and polymeric, which have different emission spectra. A high membrane potential promotes the polymeric form. An increase in the monomer/polymer ratio (520 nm/590 nm) produces therefore a fall in Δψ. A high ratio is therefore less conducive to cell survival than a lower ratio. The same fibroblast cultures than used for creatine kinase there above were used.

intracellular peroxide = experiment: Endogenous peroxides in human keratinocytes (DCFH-DA probe); assay type: cell-based; conditions: Trolox at 500 μm
Protocol: This factor can be measured reliably using a probe called DCFH-DA, whose characteristic is to fluoresce in contact with peroxides once it entered the cell. Confluence human keratinocytes were placed in contact or not (negative control) for 24 h with the Globularia cordifolia extract until they grew to confluence. The cells were then exposed to and metabolized the DCFH label in a buffer. The label can then react with both intracellular peroxides. The medium was then replaced with one containing or not the Globularia cordifolia extract and the oxidizing agent model hydrogen peroxide (neither the medium nor the Globularia cordifolia extract reacts directly with H2O2). Fluorescence was read in order to estimate the level of the intracellular peroxide which had reacted with the label. The number of cells was quantified using a nuclear labeling method (Hoechst 33258).

[3] = tested on: SOD (superoxide dismutase); experiment: Intracellular SOD activity in human keratinocytes treated with hydrogen peroxide; assay type: cell-based; conditions: Trolox at 0.012%
Text: A preliminary test on the antioxidant skin potential had shown that human keratinocytes treated with the hydrogen peroxide, a model of oxidative stress, increased their intracellular activity of SOD (superoxide dismutase) by 22%*(p<0.01) compared to the negative control in the presence of the Globularia cordifolia extract.

proteasome = experiment: Residual proteasome activity in human dermal fibroblasts after H2O2 stress; assay type: cell-based; conditions: Trolox 500 μm
Text: Human dermal fibroblasts were placed or not (negative control) in contact with the Globularia cordifolia extract until they grew to confluence. The Globularia cordifolia extract was then removed and the cells were exposed to the oxidant model, hydrogen peroxide, to produce accelerated ageing. After this stage, the cells were again exposed to the Globularia cordifolia extract for 3 days and then were reseeded and subjected to a further oxidative stress to amplify the effect of the initial stress. The cells were then homogenized and the residual proteasome activity measured by monitoring cleavage of a model fluorescent peptide. Results were standardized by parallel measurement of protein.

Glutathion = Glutathion synthesis in keratinocytes; assay type: cell-based; conditions: Trolox at 0.012%
DPPH anti-radical test = assay type: biochemical; conditions: positive control, 0003% of caffeic acid
Text: 2) DPPH Anti-Radical Test The DPPH (1, 1-diphenyl-2-picryl hydrazyl) is a stable free radical which is widely used for the detection of free radical scavengers. This molecule by losing its radical character is converted to DPPH2 (1, 1-diphenyl-2-picryl hydrazine). This conversion is accompanied by discoloration (purple→yellow) which can be monitored over time by spectrophotometry at 517 nm.

[4] = Anti-singlet-oxygen test (Rose Bengal, visible light, uric acid destruction); assay type: biochemical; conditions: positive control, caffeic acid at 0002%
Text: Molecular oxygen (O2) plays a vital role as an acceptor of the respiratory chain terminal electrons. However, this metabolism and others, as well as external factors, such as UV radiations, lead to the occurrence of certain derivatives particularly reactive (singlet oxygen, hydroxyl radical, superoxide anion), which will cause oxidative damage to lipids, proteins and nucleic acids, even in healthy bodies. Singlet oxygen is one of these very energetic and highly reactive forms of oxygen. It is possible to produce experimentally in vitro singlet oxygen with dyes and UVA photons or visible light. The test presented thereafter uses the Rose Bengal, a dye and visible light. The purpose of this test is to evaluate the degradation of uric acid by singlet oxygen formed from the Rose Bengal, under the action of visible light. The visualization of the production of singlet oxygen is obtained by following the destruction of uric acid at 292 nm. In the presence of a compound capable of neutralizing singlet oxygen, this destruction will be slowed. The caffeic acid at 0002% is used as a positive control of an anti-singlet-oxygen activity Data in Table 3 below.

Chain of bovine serum albumin (BSA) (P02769 25-607): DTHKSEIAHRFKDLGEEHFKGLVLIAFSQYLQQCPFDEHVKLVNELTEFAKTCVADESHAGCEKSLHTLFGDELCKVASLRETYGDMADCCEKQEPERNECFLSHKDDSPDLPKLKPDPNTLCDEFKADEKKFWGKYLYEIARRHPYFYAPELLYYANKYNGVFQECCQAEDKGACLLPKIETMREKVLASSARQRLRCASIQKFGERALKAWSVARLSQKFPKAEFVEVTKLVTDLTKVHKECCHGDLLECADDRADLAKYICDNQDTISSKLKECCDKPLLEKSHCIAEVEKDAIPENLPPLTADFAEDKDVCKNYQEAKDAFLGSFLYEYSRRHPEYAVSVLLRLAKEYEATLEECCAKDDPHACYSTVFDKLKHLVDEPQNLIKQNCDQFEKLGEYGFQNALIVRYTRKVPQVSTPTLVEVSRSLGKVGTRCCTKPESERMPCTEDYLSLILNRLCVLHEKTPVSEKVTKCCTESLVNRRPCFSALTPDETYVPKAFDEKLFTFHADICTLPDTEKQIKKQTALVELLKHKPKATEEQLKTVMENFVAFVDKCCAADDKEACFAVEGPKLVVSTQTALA

In the case of N=C(N)NN [Aminoguanidine], the “Glycation % Change, positive control” value ([1]; aminoguanidine at 0.03%) is reported as “Positive control aminoguanidine at 0.03%: −85%; p < 0.01” and the glycation inhibition versus the control ([1]; positive control, 0.03% Aminoguanidine) is reported as 85%.
For Cc1c(C)c2c(c(C)c1O)CCC(C)(C(=O)O)O2 (centres unmarked) [Trolox], the “Sirtuin-1 % Change, positive control” value (sirtuin-1) was “Positive control Trolox at 500 μm: +27%; p < 0.05”, the “Creatin kinase activity % Change, positive control” value (creatine kinase) was “Positive control Trolox at 500 μm: +28%; p < 0.05” and the “Mitochondrial membrane potential % Change, positive control” value [2] was “Positive control Trolox at 500 μm: +36%; p < 0.05”. The “Intracellular peroxide % Change, positive control” value (intracellular peroxide) was “Positive control Trolox at 500 μm: −91%; (p < 0.01)”, the “SOD, positive control” value [3] was 21% and the “proteasome activity % Change, positive control” value (proteasome) was “Positive control Trolox 500 μm: +24%; (p < 0.05)”. The “GSH, positive control” value (Glutathion) was 53%.
With O=C(O)/C=C/c1ccc(O)c(O)c1 [caffeic acid] the “anti-radical activity versus the control” value (DPPH anti-radical test) was −85% and the “anti-singlet-oxygen activity versus the control” value [4] was “+73%”.
